The record followed here is BindingDB's records for doi:10.1021/acs.jmedchem.8b01644 (University of Montpellier, 2019).

Structures are written as SMILES. Positions of bridges follow the written chain, without caps; N, C: chain ends. Non-standard residues stand in square brackets, D forms with d. Residues, ends and D or L forms follow the SMILES beside them. Nle = CCCC[C@H](N)C(=O)O

A short description of assay [1]: Antagonist activity at SNAP-tagged human GHSR expressed in HEK293T cells assessed as reduction in ghrelin-induced inositol phosphate production at 1 uM by measuring ghrelin EC50 after 30 mins by HTRF assay (Rvb = 0.40 +/- 0.05 nM). Background: Time-resolved FRET reads energy transfer from a long-lived donor to a nearby acceptor.
Assay [2] can be described thus: Antagonist activity at human SNAP-tagged GHSR expressed in HEK293T cells assessed as reduction in ghrelin-induced calcium production at 1 uM by measuring ghrelin EC50 after 15 mins by Fluo 4-AM dye-based fluorescence assay (Rvb = 0.34 +/- 0.12 nM).
Assay [3] can be described thus: Antagonist activity at SNAP-tagged human GHSR expressed in HEK293T cells assessed as reduction in ghrelin-induced inositol phosphate production at 1 uM by measuring ghrelin EC50 after 30 mins by HTRF assay (Rvb = 0.36 +/- 0.01 nM).
Assay [4] can be described thus: Antagonist activity at human SNAP-tagged GHSR expressed in HEK293T cells assessed as reduction in ghrelin-induced calcium production at 1 uM by measuring ghrelin EC50 after 15 mins by Fluo 4-AM dye-based fluorescence assay (Rvb = 0.41 +/- […]).

`CCCC[C@H](N)C(=O)N[C@H](C(=O)N1CCC[C@H]1C(=O)N[C@@H](Cc1ccccc1)C(=O)N[C@@H](Cc1c[nH]c2ccccc12)C(=O)N[C@@H](CCCNC(=N)N)C(=O)NCC(=O)N[C@H](C(=O)N[C@@H](CO)C(=O)N[C@@H](CC(C)C)C(=O)N[C@@H](CCCNC(=N)N)C(=O)N1CCC[C@H]1C(=O)N[C@H](C(=O)NCC(=O)O)[C@@H](C)CC)C(C)C)[C@@H](C)O` (H-[Nle]TPFWRGVSLRPIG-OH): the EC50 in assay [1] amounted to 2.5 nM; in assay [2], 18 nM.
Regarding `CC[C@H](C)[C@@H]1NC(=O)[C@@H]2CSSC[C@@H](C(=O)N[C@@H](CO)C(=O)N[C@@H](CC(C)C)C(=O)N[C@@H](CO)C(=O)N[C@H](C(=O)N[C@@H](C)C(=O)N[C@@H](CCC(N)=O)C(=O)N[C@@H](CCC(=O)O)C(=O)O)C(C)C)NC(=O)[C@H](CCCNC(=N)N)NC(=O)[C@H](CCCNC(=N)N)NC(=O)[C@H](CCCCN)NC(=O)[C@H](CCCNC(=N)N)NC(=O)[C@H](CSSC[C@H](NC(=O)[C@H](CO)NC(=O)[C@H](C)NC(=O)CNC(=O)[C@@H](NC(=O)[C@@H]3CCCN3C(=O)[C@H](CCCNC(=N)N)NC(=O)[C@H](CC(C)C)NC(=O)[C@H](CO)NC(=O)[C@@H](NC(=O)CNC(=O)[C@H](CCCNC(=N)N)NC(=O)[C@H](Cc3c[nH]c4ccccc34)NC(=O)[C@H](Cc3ccccc3)NC(=O)[C@@H]3CCCN3C(=O)[C@@H](NC(=O)[C@@H](N)CCSC)[C@@H](C)O)C(C)C)[C@@H](C)CC)C(=O)N[C@@H](CCCNC(=N)N)C(=O)N[C@@H](CC(=O)O)C(=O)N[C@@H](CC(=O)O)C(=O)N[C@@H](CO)C(=O)N[C@@H](CCC(=O)O)C(=O)N2)NC(=O)[C@H](CC(C)C)NC(=O)[C@H](CCCNC(=N)N)NC(=O)[C@H]([C@@H](C)O)NC1=O` (H-MTPFWRGVSLRPIGASCRDDSECITRLCRKRRCSLSVAQE-OH; disulfide 17-28, 23-33), the EC50 in assay [3] turned out to be 17 nM; in assay [4] it was 28 nM.

The term EC50 denotes the concentration that produces a half-maximal response.
